ChEMBL document CHEMBL5532645, “Discovery of proteolysis-targeting chimera targeting undruggable proteins using a covalent ligand screening approach” (Eur J Med Chem, 2024)
Blank lines part the entries; values can stand above or below the compound they belong to. The source made the active and inactive calls. The calls are words filed in the database; no cut-off is given here.

Tests used:
[1] = target: T1, Protein cereblon/E3 ubiquitin-protein ligase Mdm2 (Homo sapiens) (UniProt Q00987+Q96SW2); assay: PROTAC activity at CRBN/MDM2 in human HEK293 cells assessed as induction of MDM2 degradation at 30 uM measured after 2 hrs by Western blot analysis; assay type: cell-based
T1 sequence (Q00987 whole entry, looked up): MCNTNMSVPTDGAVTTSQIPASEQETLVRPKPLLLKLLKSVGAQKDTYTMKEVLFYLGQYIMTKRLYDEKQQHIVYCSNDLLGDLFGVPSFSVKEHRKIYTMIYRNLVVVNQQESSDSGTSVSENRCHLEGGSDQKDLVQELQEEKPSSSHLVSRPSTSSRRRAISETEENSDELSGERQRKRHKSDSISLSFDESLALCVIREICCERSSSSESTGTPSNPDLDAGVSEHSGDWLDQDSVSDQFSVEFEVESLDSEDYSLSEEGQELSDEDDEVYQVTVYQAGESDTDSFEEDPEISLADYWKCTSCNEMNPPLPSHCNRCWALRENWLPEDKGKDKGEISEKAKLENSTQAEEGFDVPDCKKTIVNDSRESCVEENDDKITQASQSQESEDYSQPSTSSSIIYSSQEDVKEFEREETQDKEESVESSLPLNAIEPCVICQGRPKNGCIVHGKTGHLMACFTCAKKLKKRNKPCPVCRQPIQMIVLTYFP
T1 sequence (Q96SW2 whole entry, looked up): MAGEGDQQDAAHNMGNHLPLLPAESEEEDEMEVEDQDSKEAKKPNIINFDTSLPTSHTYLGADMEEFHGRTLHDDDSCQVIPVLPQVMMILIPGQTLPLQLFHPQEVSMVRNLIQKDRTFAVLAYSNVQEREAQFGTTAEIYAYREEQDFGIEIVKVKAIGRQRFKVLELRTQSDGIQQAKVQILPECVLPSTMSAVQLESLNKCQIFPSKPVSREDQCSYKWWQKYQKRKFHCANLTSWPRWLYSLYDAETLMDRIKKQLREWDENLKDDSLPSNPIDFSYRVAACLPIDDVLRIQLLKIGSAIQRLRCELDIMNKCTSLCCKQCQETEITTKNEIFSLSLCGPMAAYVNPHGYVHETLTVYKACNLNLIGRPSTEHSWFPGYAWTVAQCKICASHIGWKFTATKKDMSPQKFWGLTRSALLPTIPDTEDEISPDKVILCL

[2] = target: T1, Protein cereblon/E3 ubiquitin-protein ligase Mdm2 (Homo sapiens); assay: PROTAC activity at CRBN/MDM2 in human HEK293 cells assessed as increase in MDM2 expression at 30 uM measured after 6 hrs by Western blot analysis; assay type: cell-based
[3] = target: T1, Protein cereblon/E3 ubiquitin-protein ligase Mdm2 (Homo sapiens); assay: PROTAC activity at CRBN/MDM2 in human HEK293 cells at 30 uM measured after 24 hrs Western blot analysis relative to control; assay type: cell-based
[4] = target: T1, Protein cereblon/E3 ubiquitin-protein ligase Mdm2 (Homo sapiens); assay: PROTAC activity at CRBN/MDM2 in human HEK293 cells assessed as induction of MDM2 degradation at 30 uM measured after 24 hrs by Western blot analysis; assay type: cell-based
[5] = target: T1, Protein cereblon/E3 ubiquitin-protein ligase Mdm2 (Homo sapiens); assay: PROTAC activity at CRBN/MDM2 in human HEK293 cells assessed as induction of MDM2 degradation at 3 to 10 uM; assay type: cell-based; conditions: dose 3-10 µM
[6] = target: T1, Protein cereblon/E3 ubiquitin-protein ligase Mdm2 (Homo sapiens); assay: PROTAC activity at CRBN/MDM2 in human HEK293 cells at 3 to 10 uM preincubated with MLN4924 for 4 hrs followed by compound addition and measured after 20 hrs by Western blot analysis; assay type: cell-based; conditions: dose 3-10 µM
[7] = target: T1, Protein cereblon/E3 ubiquitin-protein ligase Mdm2 (Homo sapiens); assay: PROTAC activity at CRBN/MDM2 in human HEK293 cells assessed as induction of MDM2 degradation at 30 uM by Western blot analysis; assay type: cell-based; conditions: time 2-24 hrs, TDE = time-dependent effect
[8] = target: T1, Protein cereblon/E3 ubiquitin-protein ligase Mdm2 (Homo sapiens); assay: PROTAC activity at CRBN/MDM2 in human HEK293 cells assessed as induction of MDM2 degradation measured after 24 hrs by Western blot analysis; assay type: cell-based; conditions: dose 3-30 µM
[9] = target: T1, Protein cereblon/E3 ubiquitin-protein ligase Mdm2 (Homo sapiens); assay: PROTAC activity at CRBN/MDM2 in human HEK293 cells assessed as maximum degradation at 10 uM measured after 24 to 48 hrs by Western blot analysis; assay type: cell-based; conditions: time 24-48 hrs
[10] = target: T1, Protein cereblon/E3 ubiquitin-protein ligase Mdm2 (Homo sapiens); assay: PROTAC activity at CRBN/MDM2 in human HEK293 cells at 3 to 10 uM preincubated with MG132 for 4 hrs followed by compound addition and measured after 20 hrs by Western blot analysis; assay type: cell-based; conditions: dose 3-10 µM
HEK293 = assay: Cytotoxicity against HEK293 cells assessed as cell viability at 0.3 uM incubated for 24 hrs by cell counting kit 8 method; assay type: toxicity, cell-based; conditions: human, hek293, 24 h

Compound: CN1C(=O)CCC(N2C(=O)c3cccc(NCCOCCC(=O)N(C)C(c4ccc(F)cc4)c4cccnc4)c3C2=O)C1=O (stereo not given)
Activity [5]: inactive
Emax [3]: inactive

Compound: CN(C(=O)CCOCCOCCOCCNc1cccc2c1C(=O)N(C1CCC(=O)NC1=O)C2=O)C(c1ccc(F)cc1)c1cccnc1 (stereo not given)
Emax [3]: 5.6%

Compound: CN(C(=O)CCOCCOCCOCCOCCNc1cccc2c1C(=O)N(C1CCC(=O)NC1=O)C2=O)C(c1ccc(F)cc1)c1cccnc1 (stereo not given)
Emax [3]: 5.5%

Compound: CN(C(=O)CCOCCNc1cccc2c1C(=O)N(C1CCC(=O)NC1=O)C2=O)C(c1ccc(F)cc1)c1cccnc1 (stereo not given)
Activity [6]: inactive
Activity [5]: Active
Emax [3]: 31.2%
Activity [7]: Tde
Activity [8]: Dose-Dependent Effect
Activity [9]: Active
Activity [10]: inactive

Compound: NS(=O)(=O)OC[C@@H]1C[C@@H](n2ccc3c(N[C@H]4CCc5ccccc54)ncnc32)C[C@@H]1O [PEVONEDISTAT]
Activity (HEK293): Non-Toxic

Now from value to compound:

Activity [1]: Active
Activity [2]: Active
Emax [3]: 31.5%
Activity [4]: inactive
Compound: O=C1CCC(N2C(=O)c3ccc(NCCOCCOCCC(=O)N4CCN(c5nccc(C(F)(F)F)n5)CC4)cc3C2=O)C(=O)N1 (stereo not given)

Emax [3]: 26.5%
Compound: CN(C(=O)CCOCCOCCNc1cccc2c1C(=O)N(C1CCC(=O)NC1=O)C2=O)C(c1ccc(F)cc1)c1cccnc1 (stereo not given)

Activity [2]: Active
Emax [3]: 28.3%
Compound: O=C1CCC(N2C(=O)c3cccc(NCCOCCOCCC(=O)N4CCOC(c5cccc(OC(F)F)c5)C4)c3C2=O)C(=O)N1 (stereo not given)

Emax [3]: 23.2%
Compound: O=C1CCC(N2C(=O)c3ccc(NCCOCCC(=O)N4CCOC(c5cccc(OC(F)F)c5)C4)cc3C2=O)C(=O)N1 (stereo not given)
